From US20070178575A1, “Identification Of A Nitrilase From B. Japonicum By Rational Genome Mining And Methods Of Use” (priority 2005, published 2007)

What was measured:
[1] = target: T1, nitrilase bll6402 (Bradyrhizobium diazoefficiens, UniProt Q89GE3); assay: Substrate specificity: specific/relative activity by ammonia release; type: biochemical, Bradyrhizobium japonicum USDA110; details: for Relative Activity: 25 mM substrate, pH 7.2, 30° C., phenylacetonitrile defined as 100
Method: The standard assays were carried out by mixing the substrate nitrile and purified nitrilase enzyme in potassium phosphate buffer (100 mM, pH 7.2). The reaction mixture was incubated at 30° C. Samples (100 μL) of the reaction mixture were withdrawn at several time intervals and quenched with 10 μl of 1 M HCl. The amount of ammonia produced in the reaction was measured using Bertholet assay as follows: A 100 μL aliquot of each of the following assay reagents was added subsequently: 0.02 M NaOCl, 0.33 M sodium phenoxide and 0.01% sodium nitroprusside solution. The mixture was then heated at 95° C. for 2 min, cooled rapidly in ice-water bath, and 200 μl of the mixture was then placed in a 96-well plate to measure the absorbance at 640 nm using SpectraMax M2 microplate reader (Molecular Devices). The amount of ammonia released during the hydrolysis was calculated by comparison with the standard curve obtained with standard ammonium chloride solution, and the activity was defined as the number of μmol of ammonia produced in 1 minute by 1 mg of enzyme (μmol·min^−1·mg^−1). To determine the kinetic parameters of the purified protein for mandelonitrile, activity assays were performed with different substrate concentrations, and Vmax and Km were calculated by best fitting the curve to experimental data according to Michaelis equation.
The specific activities of nitrilase bll6402 toward 24 different nitrites with structural diversity were measured by the quantification of the amount of ammonia released during the hydrolysis. A reaction mixture containing 20 or 40 μg of purified bll6402 enzyme, 25 mM substrate in potassium phosphate buffer (1 ml, 100 mM, pH 7.2) was incubated at 30° C. The conversion was determined by measuring the amount of ammonia produced in the reaction using Bertholet assay as described above.

[2] = target: T1, nitrilase bll6402; assay: Selective hydrolysis of dinitriles to cyanocarboxylic acids; type: biochemical, Bradyrhizobium japonicum USDA110; details: selective hydrolysis of dinitrile
Source text: Because of the synthetic importance of selective hydrolysis of dinitriles to […], nitrilase bll6402 was studied toward the hydrolysis of a series of dinitriles (e.g., scheme 6). [drawing 6]
The selectivity was not dependent on the chain length. This was different from the results obtained with nitrilases from Arabidopsis thaliana, acidovorax facilis 72W and cyanobacterium Synechocystis sp. strain PCC 6803, in which di-acids were obtained as the chain length increased.

[3] = target: T1, nitrilase bll6402; assay: Hydrolysis of aromatic α-hydroxy nitriles, conversion by HPLC; type: biochemical, Bradyrhizobium japonicum USDA110; details: 25 mM nitrile, 0.16 mg nitrilase in 1 mL, pH 7.2, overnight at 30° C.
Method: To further characterize the efficiency of nitrilase b116402 to catalyze the hydrolysis of mandelonitrile derivatives to the corresponding carboxylic acids, the hydrolysis of several aromatic α-hydroxy nitrites were carried out and the product carboxylic acids were characterized by HPLC analysis. An example procedure was as follows: aromatic α-hydroxynitriles (25 mM) were treated with 0.16 mg nitrilase bll6402 in 1 mL of potassium phosphate buffer (100 mM, pH 7.2). The reaction mixture was incubated overnight at 30° C. A sample was withdrawn and analyzed by HPLC (column: Agilent C8, eluent: MeOH:H2O=20:80, flow rate: 1 mL/min, detector: 254 nm) and the products were identified by comparison with the authentic standards.

[4] = target: T1, nitrilase bll6402; assay: Regioselective hydrolysis of 1-cyanocycloalkaneacetonitriles; type: biochemical, Bradyrhizobium japonicum USDA110; details: 200 mg dinitrile, 10 mg nitrilase, pH 7.2, 30° C.
Method: The general procedure was followed: 1-Cyanocycloalkaneacetonitiles (200 mg) was treated with the nitrilase (10 mg) in potassium phosphate buffer (50 ml, 100 mM, pH=7.2). The reaction mixture was incubated at 30° C. and monitored by ^13C NMR. When dinitrile was consumed, the mixture was acidified with 1 N HCl solution to pH˜5, saturated with NaCl and extracted with ethyl acetate. The organic extract was dried over anhydrous sodium sulfate. Removal of solvent provided the desired product, which was further purified by preparative TLC using ethyl acetate-hexane (35/65, v/v) as eluting solvent.

[5] = tested on: arylacetonitrilases from Alcaligenes faecalis ATCC8750 and JM3; details: known arylacetonitrilases; cited from earlier work
[6] = target: T1, nitrilase bll6402; assay: Enantioselective hydrolysis of β-hydroxy nitriles; type: biochemical, Bradyrhizobium japonicum USDA110
Method: β-Hydroxy nitrites were prepared by the cyanization of α-bromoketones with sodium cyanide followed by NaBH4 reduction. The obtained β-hydroxy nitrites were treated with purified nitrilase bll6402 in potassium phosphate buffer (100 mM, pH 7.0), and the reaction mixture was incubated overnight at 30° C. The mixture was then saturated with NaCl and extracted with ethyl acetate. The extract was dried over sodium sulfate, and evaporation of the solvent under reduced pressure afforded the crude products. The β-hydroxy carboxylic acids were separated from unreacted β-hydroxy nitrites by preparative thin-layer chromatography.
The ee values of both the product acids and the recovered nitrites were measured by chiral HPLC analysis, and their absolute configurations were determined by comparing the sign of optical rotation with the literature data. The enantiomeric ratios (E) were calculated using the equations proposed by Sih et al. (J. Am. Chem. Soc. 1982, 104, 7294-7299). The results are presented in Table 6 together with the data for the hydrolysis of mandelonitrile under the same conditions.

[7] = target: T1, nitrilase bll6402; type: biochemical, Bradyrhizobium japonicum USDA110; details: pH 7.2
[8] = Effects of temperature, pH and organic solvents on nitrilase activity; type: biochemical; details: 30% (v/v) of hexane, tert-butyl methyl ether or toluene; 30° C., pH 7.1, 4 hours
Method: For the determination of temperature effect, a mixture of nitrilase (0.5 mg) with benzyl cyanide (50 mM) in 1.0 ml of potassium phosphate buffer (100 mM, pH 7.1) was incubated at 25° C., 30° C., 37° C. and 45° C., respectively. Aliquots (100 μl) were taken after 1, 2, 4, and 16 hrs intervals, and acidified with 10 μl of 1M HC1. The formed phenylacetic acid was extracted into 200 μl of tert-butyl methyl ether, dried over anhydrous sodium sulfate, and quantified by GC analysis after converting to methyl ester with diazomethane.
The pH effect was studied using the following buffer: sodium citrate buffer (pH 4.91 and 5.44), potassium phosphate buffer (pH 6.07, 6.52, 7.10, 7.58, 7.98 and 8.49) and sodium bicarbonate buffer (pH 8.98). A mixture of nitrilase (0.5 mg) with benzyl cyanide (50 mM) in 1.0 ml of the respective buffer (100 mM) was incubated at 30° C. […] The formed phenylacetic acid was extracted into 200 μl of tert-butyl methyl ether, dried over anhydrous sodium sulfate, and quantified by GC analysis after converting to methyl ester with diazomethane.
The organic solvent effects were evaluated with dimethyl sulfoxide (DMSO), tert-butyl methyl ether, hexane, toluene and butyl acetate. […] The formed phenylacetic acid was extracted into 1 ml of tert-butyl methyl ether, dried over anhydrous sodium sulfate, and quantified by GC analysis after converting to methyl ester with diazomethane.

[9] = pH 7.0, overnight at 30° C., isolated yield

T1 sequence (Q89GE3 whole entry, looked up): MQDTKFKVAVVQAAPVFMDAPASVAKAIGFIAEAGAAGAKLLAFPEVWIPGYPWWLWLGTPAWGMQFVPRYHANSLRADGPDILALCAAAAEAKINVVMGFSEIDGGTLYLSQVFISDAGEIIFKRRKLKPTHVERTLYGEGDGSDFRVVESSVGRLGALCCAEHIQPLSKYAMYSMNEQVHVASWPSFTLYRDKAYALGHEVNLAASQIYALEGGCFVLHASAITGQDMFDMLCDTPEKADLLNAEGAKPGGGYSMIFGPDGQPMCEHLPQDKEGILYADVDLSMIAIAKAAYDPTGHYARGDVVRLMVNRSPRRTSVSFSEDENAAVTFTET

Compound	Relative Activity [1]	other results
CCCCCCC#N [Heptanenitrile]	22	
N#CCCCCCCCCC#N [Sebeconitrile]		Yield (%) of cyanocarboxylic acid [2]: 88%
CCC(C#N)c1ccccc1 (stereo not drawn) [α-Phenylbutyronitrile]	8	
N#CC(O)c1ccc(O)cc1 (stereo not drawn) [α-Hydroxy-α-(p-hydroxyphenyl)acetonitrile]		Conversion(%) [3]: 88%
CN(C)C(C#N)c1ccccc1 (stereo not drawn) [α-N,N-Dimethylaminophenylacetonitrile]	1	
N#CCCN [3-Aminopropionitrile]	1	
CCCCC#N [Valeronitrile]	6	
CC=CC#N [Crotononitrile]	3	
N#CCCCc1ccccc1 [4-Phenylbutyronitrile]	4	
N#CC(O)c1cccc(O)c1 (stereo not drawn) [α-Hydroxy-α-(m-hydroxyphenyl)acetonitrile]		Conversion(%) [3]: 94%
N#Cc1ccccc1 [Benzonitrile]	1	
CC(=O)c1ccc(C#N)cc1 [4-Acetylbenzonitrile]	2	
N#CCCCCCC#N [1,5-Dicyanopentane]		Yield (%) of cyanocarboxylic acid [2]: 90%
C[Si](C)(C)OC(C#N)c1ccccc1 (stereo not drawn) [α-Trimethylsilyloxyphenylacetonitrile]	165	Conversion(%) [3]: 99%
N#CCC1(C#N)CCCC1 [1-cyanocyclopentaneacetonitrile]		isolated yield of corresponding cyanocarboxylic acid [4]: 92%
CC(C)(C#N)C#N [α,α-Dimethylmalononitrile]		Yield (%) of cyanocarboxylic acid [2]: 93%
CC(C#N)c1ccccc1 (stereo not drawn) [α-phenylpropionitrile]	10	
CCCCCC#N [Hexanenitrile]	16	
N#CCCCCCCC#N [1,6-Dicyanohexane]		Yield (%) of cyanocarboxylic acid [2]: 88%

Compound	Relative Activity [1]	other results
N#CCCCC#N [Glutaronitrile]		Yield (%) of cyanocarboxylic acid [2]: 93%
N#CCCCCl [4-Chlorobutyronitrile]	6	
N#CC(N)c1ccccc1 (stereo not drawn) [2-Phenylglycinonitrile]	3	
N#CCCC#N [Succinonitrile]		Yield (%) of cyanocarboxylic acid [2]: 97%
N#CCCCCC#N [1,4-Dicyanobutane]	5	Yield (%) of cyanocarboxylic acid [2]: 97%
CC(C#N)CCC#N (stereo not drawn) [2-Methylglutaronitrile]	3	
N#CCC1(C#N)CCCCC1 [1-cyancyclohexaneacetonitrile]		isolated yield of corresponding cyanocarboxylic acid [4]: 88%
N#CCC1(C#N)CCCCCC1 [1-cyanocycloheptaneacetonitrile]		isolated yield of corresponding cyanocarboxylic acid [4]: 54%
N#C/C=C/C#N [Fumaronitrile]		Yield (%) of cyanocarboxylic acid [2]: 84%
N#CC(O)c1ccccc1 (stereo not drawn) [Mandelonitrile]	460	activity relative to that of phenylacetonitrile ([1]; hydrolysis by nitrilase bll6402): 4.6 times; Conversion(%) [3]: 98%; activity as % of that for phenylacetonitrile [5]: 12-15%; product acid (S)-2 ee (%) ([6]; pH 7.0, overnight at 30° C., chiral HPLC): 0%; product acid (S)-2 yield (%) [6, 9]: 98%; recovered nitrile (R)-1 yield (%) [6, 9]: 0%
CC(CC#N)c1ccccc1 (stereo not drawn) [3-phenylbutyronitrile]		hydrolysis by nitrilase bll6402 (result in words) ([6]; same conditions as β-hydroxy nitriles): not hydrolyzed
N#CCCc1ccccc1 [Hydrocinnamonitrile]	13	
N#CCCO [3-Hydroxypropionitrile]	1	
C=CCC#N [Allyl cyanide]	2	
N#CCc1ccccc1 [Phenylacetonitrile]	100	
N#CCc1c[nH]c2ccccc12 [3-Indolylacetonitrile]	2	
CSCC#N [Methylthioacetonitrile]	1	Yield (%) of product carboxylic acid [7]: 96%
nitrilase bll6402: nitrilase (mandelonitrile hydrolase) from Bradyrhizobium japonicum USDA110, amino acid SEQ ID NO: 2, expressed in E. coli		retained activity in biphasic systems [8]: more than 70%
CCCC#N [n-Butyronitrile]	3	Yield (%) of product carboxylic acid [7]: 61%
